This assay relates to decay organisms. Put plainly: soil contact veneer exposure test: dip-treated Scots pine sapwood veneers half buried in damp compost, pulled by hand weekly until failure. Conditions: for half life, Low level with 0.8% Imazalil sulfate: 0.8% fungicide plus 0.8% imazalil sulfate, IMS; for estimated expected half life for 1% fungicide plus 1% Imazalil sulfate / Half life for 1% fungicide plus 1% Imazalil sulfate / Half life for fungicide at 2% active ingredient (ai): Example 3; for half life, Low level with 0.8% Imazalil: 0.8% fungicide plus 0.8% imazalil, IMS (alcohol). The text has this:
The present invention also provides a simple exposure test for evaluating the wood preserving abilities of candidate ingredients or compositions. This exposure test is based on the premise that small dimension timber test specimens tend to fail more quickly than larger ones in soil contact situations.
It is preferable that the thickness of the veneers be greater than 0.1 mm, as veneers of lesser thickness can often be pulled apart by hand without undergoing exposure to decay organisms. Veneers which are thicker than 0.4 may take an excessive amount of time to fail the exposure test. In one embodiment, the thickness of the veneers is about 0.2 mm and the wood is the sapwood of the Scots pine (Pinus sylvestris). Other woods and thicknesses can be used. […] An example of convenient width and length dimensions are 15×50 mm. However, width and length are not critical provided they are kept consistent within a test, although very large or small length or width dimensions may be difficult to handle.
Accordingly, the test of the present invention comprises testing the integrity of a veneer after exposure to a decay-inducing environment. In one embodiment, this environment is damp compost in which decay organisms are present and water is present at just above the water holding capacity of the compost. If desired, other media can be used, and the test can be conducted at water contents which are below, at, or above the water-holding capacity of the media.
In general, the integrity of the veneer is inversely related to the length of exposure to the decay promoting environment. The integrity of the veneer can be tested by applying a force to the veneer and noting whether or not the veneer breaks. Thus, if wood preservative agents are applied to the veneers, these veneers would be expected to withstand longer exposure to the environment without breaking compared to control veneers without breaking.
The force applied to the veneers is preferably a force which pulls the two ends in opposite directions. The force can be applied by the use of an instrument or manually. If there is significant decay the veneer will break, generally near the junction between the portion submerged in the decay accelerating medium and the portion exposed to air. If the force is applied manually, it is preferable that the same individual conduct the test at the various exposure time points.
The veneers were cut such that both late wood and early wood were present in each veneer. The following biocides were tested: imazalil sulfate, dichlorophen, fenarimol, triclosan, and PHMB. To allow the mixing together of the five selected biocides in any combination the biocides were formulated such that they could be mixed together (all the percentages are mass/mass):
Test solutions were prepared and sets of veneers were dip treated such that there were 6 replicate veneers for each treatment under investigation. Additionally six veneers were dip treated in deionised water to act as water controls. […] Plastic containers (approximately 350×220 mm by at least 60 mm high) were part filled with John Innes Number 2 potting compost at a little above its water holding capacity. The veneers for this particular test were placed in six rows within a container such that approximately half the veneer was below the compost and half above. The veneers were placed in the compost such than those given a particular treatment were distributed throughout the container and were not grouped together. The containers, compost and veneers were weighed then incubated at about 30° C. and near 100% relative humidity in an incubator. Each week during the test the assembly was reweighed and deionised water added to bring it back to its original mass. After 3 weeks each veneer was examined in turn. It was held between the fore finger and thumb at each end and pulled to see if it could be broken. If it could be pulled apart a failure was recorded.

[1] abbreviates: unnumbered table, solutions in IMS.
Setting [2] is: Example 10, additive expectation.
Setting [3] is: Example 10, solutions in IMS (alcohol).
Where [4] appears, read: Example 5, solutions in acetone.

This is an account of results in patent publication US20060276468A1, “Wood preservative formulations comprising Imazalil” (priority 2005, published 2006).

As for `O=C(Nc1ccccc1)c1ccccc1O` [Salicylanilide, 2-hydroxy-N-phenylbenzamide], the “half life, Low level with 0.8% Imazalil sulfate” value (unnumbered table) is 6.50 weeks. Further, the “expected half life, Low level with 0.8% Imazalil sulfate” value (unnumbered table, additive expectation) is “{6.34 weeks}”. In addition, under setting [1], the “half life, High level (1.6%)” value is 5.67 weeks and the “half life, Low level (0.8%)” value was found to be 4.83 weeks.
Regarding `CC(Cc1ccc(C(C)(C)C)cc1)CN1C[C@@H](C)O[C@@H](C)C1` (mixture of isomers) [Fenpropimorph, (±)-cis-4-[3-(4-tert-butylphenyl)-2-methylpropyl]-2,6-dimethyl=morpholine], the “estimated expected half life for 1% fungicide plus 1% Imazalil sulfate” value (additive expectation) is 5.34 weeks. For the same compound, under “solutions in IMS (alcohol)”, the “Half life for 1% fungicide plus 1% Imazalil sulfate” value was 5.67 weeks and the “Half life for fungicide at 2% active ingredient (ai)” value came out at 4.67 weeks. Besides, the “half life, Low level with 0.8% Imazalil” value (Example 10) was found to be 5.83 weeks. Under setting [2], the “estimated expected half life, Low level with 0.8% Imazalil” value is “(5.17 weeks)”. Besides, under setting [3], the “half life, High level (1.6%)” value was determined as 4.17 weeks and the “half life, Low level (0.8%)” value came to 3.67 weeks.
Turning to “copper naphthenate [Copper (as copper naphthenate)]”, the “estimated expected half life for 1% fungicide plus 1% Imazalil” value (Example 6, additive expectation) was “{10.50 weeks}”. In addition, the “Half life for fungicide at 2% ai” value (Example 6, solutions in xylene) worked out at 14.83 weeks. The “Half life for 1% fungicide plus 1% Imazalil” value (Example 6, solutions in xylene, 1% copper) came to 11.67 weeks.
Take `CCCCCCCCCCCCCN1CC(C)OC(C)C1` (stereo not shown) [Tridemorph, 4-alkyl-2,6-dimethylmorpholine]: the “estimated expected half life for 1% fungicide plus 1% Imazalil sulfate” value (additive expectation) is reported as 5.42 weeks. For the setting “solutions in IMS (alcohol)”, the “Half life for 1% fungicide plus 1% Imazalil sulfate” value is 6.33 weeks and the “Half life for fungicide at 2% active ingredient (ai)” value was 4.83 weeks.
Regarding `CCCCn1sc2ccccc2c1=O` [BBIT, N-butyl-1,2-benzisothiazolin-3-one], the “half life, With Imazalil sulfate” value (Example 9, 0.7% BBIT plus 0.2% imazalil sulfate) was 7.33 weeks. The “half life, No addition” value (Example 9, 1.4% BBIT or 0.4% imazalil sulfate alone, formulations which can be mixed together) turned out to be 8.33 weeks. For the same compound, for the setting “Example 9, additive expectation”, the “estimated expected half life, With Imazalil sulfate” value is given as “{6.92 weeks}”.
`COC(=O)N(OC)c1ccccc1COc1ccn(-c2ccc(Cl)cc2)n1` [Pyraclostrobin, methyl N-{2-[1-(4-chlorophenyl)-1H-pyrazol-3-yloxymethyl]phenyl}(N-methoxy)carbamate]: the “estimated expected half life for 1% fungicide plus 1% Imazalil sulfate” value (additive expectation) is given as 6.09 weeks. For the same compound, under “solutions in IMS (alcohol)”, the “Half life for 1% fungicide plus 1% Imazalil sulfate” value was determined as 6.50 weeks and the “Half life for fungicide at 2% active ingredient (ai)” value is reported as 6.17 weeks.
As for `CCCC1COC(Cn2cncn2)(c2ccc(Cl)cc2Cl)O1` (stereo not shown) [Propiconazole, 1-[[2-(2,4-dichlorophenyl)-4-propyl-1,3-dioxolan-2-yl]=methyl]-1H-1,2,4-triazole], the “estimated expected half life for 1% fungicide plus 1% Imazalil” value (Example 5, additive expectation) is listed as “{6.59 weeks}”. Under setting [4], the “Half life for 1% fungicide plus 1% Imazalil” value was 7.33 weeks and the “Half life for fungicide at 2% ai” value was 5.50 weeks. The “half life, Low level with 0.8% Imazalil” value (Example 10) turned out to be 6.17 weeks. In addition, the “estimated expected half life, Low level with 0.8% Imazalil” value under setting [2] is listed as “(5.84 weeks)”. Also, under setting [3], the “half life, High level (1.6%)” value is 5.50 weeks and the “half life, Low level (0.8%)” value was 5.33 weeks.
Consider `OC(c1ccc(Cl)cc1)(c1cncnc1)c1ccccc1Cl` (racemic) [Fenarimol, (±)-2,4′-dichloro-α-(pyrimidin-5-yl)benzhydryl alcohol], for which the “half life, Low level with 0.8% Imazalil sulfate” value worked out at 6.67 weeks. Also, where the note is “Example 1, 0.3% dichlorophen, 0.1% triclosan, 0.4% fenarimol or 0.4% PHMB, each plus 0.2% imazalil sulfate”, the “average time for failure to occur (half life), combination with imazalil sulfate” value worked out at 6.67 weeks. Moreover, the “estimated expected average time for failure, combination with imazalil sulfate” value (Example 1, additive expectation, midway between the two single biocides) is listed as “(6.17) weeks”. Also, the “average time for failure to occur (half life)” value (Example 1, biocide alone: 0.6% dichlorophen, 0.2% triclosan, 0.8% fenarimol, 0.8% PHMB, 0.4% imazalil sulfate, 6 veneers) came out at 7.17 weeks. In addition, the “synergy of the combination with imazalil sulfate” value (actual versus expected average time to failure) is given as “positive synergy”. Under “solutions in IMS”, the “half life, High level (1.6%)” value turned out to be 5.00 weeks and the “half life, Low level (0.8%)” value stood at 4.50 weeks.
